Patent EP4177246A1, “FUSED OXAZEPINES AS INHIBITORS OF PEROXIREDOXINS” (Centro Atlántico del Medicamento, SA, priority 2021, dated 2023)

Experiments:
MDA-MB-231 = assay: MTT cell viability assay, MDA-MB-231 cells; assay type: cell-based, human; conditions: Homo sapiens, 48 h drug exposure
Protocol: MDA-MB-231 [American Type Culture Collection (ATCC) reference number HTB-26]. This a human breast cancer cell line derived from a metastatic site from a person.
(§1) Cell viability was assayed by measuring the mitochondrial reduction of the tetrazolium salt 3-(4,5-methyltiazol-2yl)-2,5diphenyl-tetrazolium bromide] (MTT) (Applichen; A2231,0010) [Mosmann T. J Immunol Methods. 1983 16;65(1-2):55-63 (ref. 36); Chuan Y-C et al 2010. Oncogene. 29 (10), 1531-1542 (ref. 37)]. Cells were seeded in 96-well plates in medium (either RPMI, DMEM or McCoys depending on the recommendations from the ATCC) supplemented with 10% FBS (Lonza Cat. N°: 14-502F), 2mM L-Glut (Lonza Cat. N°: BE17-605E) and 100U/ml PEST (Lonza Cat. N°: DE17-605E) at a cell density of 1000-5000 cells/well (96 well plate). Cells were seeded at a density according to their exponential growth phase (normally 1000 to 5000/well). The cells were cultured at 37 °C in the dark in air containing 5% CO2. After 24h either vehicle (0.05% DMSO) or drug were added to culture medium at the indicated concentrations (10 to 0,01microM). After another 48 h, MTT (0.3 mg/ml) was added to cells, followed by incubation for 2-4h at 37 °C in the dark. The medium was then removed and the precipitated formazan was solubilized by the addition of DMSO (200 µL).
(§2) The optical density was measured at 595 nm with the iMark Microplate Reader (BioRad, USA). Data was expressed as percent growth above the level in controls and the results in figures were plotted as means ± SEM of each test point from 3 replicates.
(§3) Statistical analysis. The concentration of drug that provokes 50% reduction of cell viability (IC50) was determined by using non-linear regression analysis and data were fitted to a log concentration vs normalized response curve in GraphPad software v5 (San Diego, CA).

HEL 92.1.7 = assay: MTT cell viability assay, HEL cells; assay type: cell-based; conditions: Homo sapiens, 48 h drug exposure
Protocol: HEL 92.1.7 [American Type Culture Collection (ATCC) reference number TIB-180]. This a human cancer cell line derived from the bone marrow of a person with erythroleukemia, which is a form of AML.
as §1, §2, §3

K562 = assay: MTT cell viability assay, K562 cells; assay type: cell-based; conditions: Homo sapiens, 48 h drug exposure
Protocol: K562 [American Type Culture Collection (ATCC) reference number CCL-243]. This a human cancer cell line derived from the bone marrow of a person with CML.
as §1, §2, §3

PANC-1 = assay: MTT cell viability assay, PANC-1 cells; assay type: cell-based; conditions: Homo sapiens, 48 h drug exposure
Protocol: PANC-1 [American Type Culture Collection (ATCC) reference number CRL-1469]. This a human cancer cell line derived from the pancreas of a person.
as §1, §2, §3

MCF-7 = assay: MTT cell viability assay, MCF-7 cells; assay type: cell-based; conditions: Homo sapiens, MCF7, 48 h drug exposure
Protocol: as §1, §2, §3

DU-145 = assay: MTT cell viability assay, DU-145 cells; assay type: cell-based; conditions: Homo sapiens, 48 h drug exposure
Protocol: DU-145 [American Type Culture Collection (ATCC) reference number HTB-81]. This a human prostate cancer cell line derived from a metastatic site (brain) of a person.
as §1, §2, §3

SMILES	IC50 (MDA-MB-231) [µM]	IC50 (K562) [µM]	IC50 (PANC-1) [µM]	IC50 (MCF-7) [µM]	IC50 (DU-145) [µM]	IC50 (HEL 92.1.7) [µM]
N#Cc1cccc(N2Cc3ccccc3OC3=C2C(=O)c2c(O)ccc(O)c2C3=O)c1 [Compound 9, 3-(7,10-dihydroxy-6,11-dioxo-6,11-dihydrobenzo[f]naphtho[2,3-b][1,4]oxazepin-12(13H)-yl)benzonitrile]	0.38	0.08	0.46	1.15	2.53	–
NC(=O)c1ccc(N2Cc3ccccc3OC3=C2C(=O)c2c(O)ccc(O)c2C3=O)cc1 [Compound 10, 4-(7,10-dihydroxy-6,11-dioxo-6,11-dihydrobenzo[f]naphtho[2,3-b][1,4]oxazepin-12(13H)-yl)benzamide]	0.63	0.09	0.36	1.85	6.18	–
COc1ccc2c(c1)OC1=C(C(=O)c3c(O)ccc(O)c3C1=O)N(C(=O)c1ccc(C#N)cc1)C2 [Compound 13]	0.78	0.32	0.46	2.75	3.72	–
NS(=O)(=O)c1ccc(N2Cc3cc(F)ccc3OC3=C2C(=O)c2c(O)ccc(O)c2C3=O)cc1 [Compound 23]	2.54	0.54	0.57	3.23	8.16	–
N#Cc1cccc(N2Cc3cc(Cl)ccc3OC3=C2C(=O)c2c(O)ccc(O)c2C3=O)c1 [Compound 43]	0.81	0.76	0.74	1.3	–	–
NC(=O)c1cccc(N2Cc3cc(Cl)ccc3OC3=C2C(=O)c2c(O)ccc(O)c2C3=O)c1 [Compound 44]	0.73	0.06	0.32	0.97	–	–
O=C1C2=C(C(=O)c3c(O)ccc(O)c31)N(c1ccccc1)Cc1ccccc1O2 [Compound 45, 7,10-dihydroxy-12-phenyl-12,13-dihydrobenzo[f]naphtho[2,3-b][1,4]oxazepine-6,11-dione]	0.13	0.09	–	–	0.57	0.09
NC(=O)c1ccc(N2Cc3cc(F)ccc3OC3=C2C(=O)c2c(O)ccc(O)c2C3=O)cc1 [Compound 55]	3.35	0.33	0.89	3.45	–	–
COc1cccc2c1OC1=C(C(=O)c3c(O)ccc(O)c3C1=O)N(c1ccc(C(N)=O)cc1)C2 [Compound 56]	0.4	0.19	–	3.04	7.22	–
CN(CCO)c1ccc(N2Cc3ccccc3OC3=C2C(=O)c2c(O)ccc(O)c2C3=O)cn1 [Compound 61]	0.41	0.16	–	–	0.92	0.1
COc1ccc(O)c2c1C(=O)C1=C(C2=O)N(c2cccc(C#N)c2)Cc2ccccc2O1 [Compound 66]	1.21	–	–	2.34	–	0.05
N#Cc1ccc(N2Cc3ccccc3OC3=C2C(=O)c2cccc(O)c2C3=O)cc1 [Compound 75]	2.7	–	5.49	2.36	3.89	–
O=C1C2=C(Oc3ccccc3CN2c2cccnc2)C(=O)c2c(O)cccc21 [Compound 76]	1.8	–	1.86	2	2.3	–
COc1ccc(O)c2c1C(=O)C1=C(Oc3ccccc3CN1c1ccccc1)C2=O [Compound 84]	1.18	–	–	3.98	–	3.71
COc1ccc(OC)c2c1C(=O)C1=C(C2=O)N(c2cccnc2)Cc2ccccc2O1 [Compound 85, 7,10-dimethoxy-12-(pyridin-3-yl)-12,13-dihydrobenzo[f]naphtho[2,3-b][1,4]oxazepine-6,11-dione]	1.03	0.38	1.78	2.57	–	0.33
COC(=O)CNC(=O)c1ccc(N2Cc3ccccc3OC3=C2C(=O)c2c(O)ccc(O)c2C3=O)cc1 [Compound 102, methyl (4-(7,10-dihydroxy-6,11-dioxo-6,11-dihydrobenzo[f]naphtho[2,3-b][1,4]oxazepin-12(13H)-yl)benzoyl)glycinate]	0.17	0.42	–	–	1	–
CN(C)CCNc1ccc(N2Cc3ccccc3OC3=C2C(=O)c2cccc(O)c2C3=O)cn1 [Compound 105]	0.71	–	0.69	1.99	1.51	–

The next lines start with results.

IC50 (MDA-MB-231) [µM]	IC50 (K562) [µM]	IC50 (PANC-1) [µM]	IC50 (MCF-7) [µM]	IC50 (DU-145) [µM]	SMILES	IC50 (HEL 92.1.7) [µM]
1.59	0.98	–	–	–	O=C1C2=C(C(=O)c3ccccc31)N(c1ccccc1)Cc1ccccc1O2 [Compound 1, 12-phenyl-12,13-dihydrobenzo[f]naphtho[2,3-b][1,4]oxazepine-6,11-dione]	0.45
1.52	0.98	4.36	5.12	8.9	O=C1C2=C(C(=O)c3ccccc31)N(c1cccnc1)Cc1ccccc1O2 [Compound 4, 12-(pyridin-3-yl)-12,13-dihydrobenzo[f]naphtho[2,3-b][1,4]oxazepine-6,11-dione]	–
–	0.65	–	5.91	5.77	NC(=O)c1ccc(N2Cc3ccccc3OC3=C2C(=O)c2ccccc2C3=O)cc1 [Compound 17, 4-(6,11-dioxo-6,11-dihydrobenzo[f]naphtho[2,3-b][1,4]oxazepin-12(13H)-yl)benzamide]	–
–	1.39	–	7.9	8.36	NS(=O)(=O)c1ccc(N2Cc3ccccc3OC3=C2C(=O)c2ccccc2C3=O)cc1 [Compound 19]	1
2.63	–	3.43	–	–	CN(CCO)c1ccc(N2Cc3ccccc3OC3=C2C(=O)c2ccccc2C3=O)cn1 [Compound 49]	1.22
1.64	–	1.7	2.27	2.7	CN(C)CCNc1ccc(N2Cc3ccccc3OC3=C2C(=O)c2ccccc2C3=O)cn1 [Compound 73]	–
1.28	–	3.89	–	–	COc1ccc(OC)c2c1C(=O)C1=C(C2=O)N(c2ccc(N3CCOCC3)nc2)Cc2ccccc2O1 [Compound 86]	0.59
2.17	–	2.94	3.54	4.7	CN(C)c1ccc(N2Cc3ccccc3OC3=C2C(=O)c2ccccc2C3=O)cn1 [Compound 98]	–
2.09	–	2.61	2.28	4.3	O=C1C2=C(C(=O)c3ccccc31)N(c1ccc(N3CCOCC3)nc1)Cc1ccccc1O2 [Compound 99]	–
1.63	–	1.8	1.95	3.4	CN1CCN(c2ccc(N3Cc4ccccc4OC4=C3C(=O)c3ccccc3C4=O)cn2)CC1 [Compound 100, 12-(6-(4-methylpiperazin-1-yl)pyridin-3-yl)-12,13-dihydrobenzo[f]naphtho [2,3-b][1,4]oxazepine-6,11-dione]	–
1.4	–	1.41	1.74	1.8	CN(C)c1ccc(N2Cc3ccccc3OC3=C2C(=O)c2cccc(O)c2C3=O)cn1 [Compound 103]	–
1.02	–	1.23	1.82	1.6	O=C1C2=C(Oc3ccccc3CN2c2ccc(N3CCOCC3)nc2)C(=O)c2c(O)cccc21 [Compound 104]	–
0.74	–	0.71	–	–	CN1CCN(c2ccc(N3Cc4ccccc4OC4=C3C(=O)c3cccc(O)c3C4=O)cn2)CC1 [Compound 106]	–
